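In this assay, cells in 96-well plates receive the compound at five concentrations for 48 hours. Endpoints are linearly interpolated between the surrounding concentrations. Here, GI50 denotes the concentration required for 50% inhibition of growth. TGI: concentration producing complete growth inhibition.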
What was measured:
Test in all cases: DTP human tumour cell line panel, 48 h
[1] = tested on: 786-0 renal
[2] = tested on: A498 renal
[3] = tested on: A549 NSCLC
[4] = tested on: ACHN renal
[5] = tested on: BT-549 breast
[6] = tested on: CAKI-1 renal
[7] = tested on: CCRF-CEM leukemia
[8] = tested on: COLO 205 colon
[9] = tested on: DU-145 prostate
[10] = tested on: EKVX NSCLC
[11] = tested on: HCC-2998 colon
[12] = tested on: HCT-116 colon
[13] = tested on: HCT-15 colon
[14] = tested on: HL-60(TB) leukemia
[15] = tested on: HOP-62 NSCLC
[16] = tested on: HOP-92 NSCLC
[17] = tested on: HS 578T breast
[18] = tested on: HT29 colon
[19] = tested on: IGROV1 ovarian
[20] = tested on: K-562 leukemia
[21] = tested on: KM12 colon
[22] = tested on: LOX IMVI melanoma
[23] = tested on: M14 melanoma
[24] = tested on: MALME-3M melanoma
[25] = tested on: MCF7 breast
[26] = tested on: MDA-MB-231 breast
[27] = tested on: MDA-MB-435
[28] = tested on: MOLT-4 leukemia
[29] = tested on: NCI-H226 lung

With Cc1nc2cc(-c3nn(C(C)C)c4ncnc(N)c34)ccc2o1 as the molecule, how does the GI50 [1] read?
The GI50 was 13.6 nM.

And the TGI [1]?
Its TGI is 287 nM.

What about the GI50 [2] of the same molecule?
Its GI50 is 1.85 nM.

And the TGI [2]?
Its TGI is 6.89 nM.

What about the GI50 [3] of the same molecule?
Its GI50 is 12.7 nM.

What about the TGI [3] of the same molecule?
The TGI was 310 nM.

What about the GI50 [4] of the same molecule?
The GI50 was 10.2 nM.

And the TGI [4]?
The TGI was 1220 nM.

What about the GI50 [5] of the same molecule?
Its GI50 is 3.51 nM.

And the TGI [5]?
Its TGI is 61 nM.

And the GI50 [6]?
The GI50 was 4.9 nM.

What about the TGI [6] of the same molecule?
The TGI was 84.4 nM.

And the GI50 [7]?
The GI50 was 27 nM.

And the TGI [7]?
Its TGI is over 10000 nM.

What about the GI50 [8] of the same molecule?
The GI50 was 12.1 nM.

And the TGI [8]?
The TGI was 870 nM.

What about the GI50 [9] of the same molecule?
Its GI50 is 19.7 nM.

And the TGI [9]?
Its TGI is over 10000 nM.

And the GI50 [10]?
Its GI50 is 14.1 nM.

And the TGI [10]?
Its TGI is 286 nM.

And the GI50 [11]?
The GI50 was 12.2 nM.

What about the TGI [11] of the same molecule?
The TGI was over 10000 nM.

What about the GI50 [12] of the same molecule?
The GI50 was 35 nM.

And the TGI [12]?
The TGI was over 10000 nM.

What about the GI50 [13] of the same molecule?
Its GI50 is 12.6 nM.

What about the TGI [13] of the same molecule?
The TGI was over 6080 nM.

And the GI50 [14]?
Its GI50 is 68 nM.

What about the TGI [14] of the same molecule?
Its TGI is over 10000 nM.

And the GI50 [15]?
The GI50 was 21.8 nM.

What about the TGI [15] of the same molecule?
Its TGI is 415 nM.

And the GI50 [16]?
The GI50 was 1.96 nM.

What about the TGI [16] of the same molecule?
Its TGI is 34.4 nM.

And the GI50 [17]?
Its GI50 is 5.18 nM.

What about the TGI [17] of the same molecule?
The TGI was 47.3 nM.

What about the GI50 [18] of the same molecule?
The GI50 was 20.8 nM.

What about the TGI [18] of the same molecule?
Its TGI is over 5340 nM.

What about the GI50 [19] of the same molecule?
The GI50 was 3.41 nM.

What about the TGI [19] of the same molecule?
Its TGI is 55.9 nM.

What about the GI50 [20] of the same molecule?
The GI50 was 28.8 nM.

And the TGI [20]?
Its TGI is over 10000 nM.

What about the GI50 [21] of the same molecule?
Its GI50 is 17.2 nM.

And the TGI [21]?
The TGI was 4980 nM.

And the GI50 [22]?
The GI50 was 14.1 nM.

What about the TGI [22] of the same molecule?
Its TGI is 660 nM.

And the GI50 [23]?
Its GI50 is 9.73 nM.

What about the TGI [23] of the same molecule?
Its TGI is 1210 nM.

What about the GI50 [24] of the same molecule?
The GI50 was 3.47 nM.

What about the TGI [24] of the same molecule?
Its TGI is 78.7 nM.

And the GI50 [25]?
The GI50 was 3.79 nM.

And the TGI [25]?
Its TGI is over 10000 nM.

What about the GI50 [26] of the same molecule?
Its GI50 is 11.6 nM.

And the TGI [26]?
The TGI was over 3930 nM.

And the GI50 [27]?
Its GI50 is 8.54 nM.

And the TGI [27]?
The TGI was 98.2 nM.

What about the GI50 [28] of the same molecule?
The GI50 was 20.6 nM.

And the TGI [28]?
Its TGI is over 3500 nM.

What about the GI50 [29] of the same molecule?
Its GI50 is 5.05 nM.

What about the TGI [29] of the same molecule?
The TGI was 191 nM.
